Test results: ChEMBL document CHEMBL3804762, “Novel indoleflutimide heterocycles with activity against influenza PA endonuclease and hepatitis C virus” (Medchemcomm, 2016)
The source made the active and inactive calls. No cut-off for these calls is given here.

Assays:
[1] = biological target: Polymerase acidic protein (Influenza A virus (A/Puerto Rico/8/1934(H1N1)), UniProt P03433); assay: Inhibition of Influenza A/PR/8/34 virus PA endonuclease by cap dependent RNA polymerase assay
[2] = Dissociation constant, pKa of compound; type: physicochemical
[3] = Selectivity index, ratio of LC50 for human Huh5-2 cells to EC50 for HCV Con1 infected in human Huh5-2 cells haboring firefly luciferase expressing subgenomic replicon of HCV genotype 1b; design: species or system Huh-5-2
[4] = biological target: T1, Nonstructural protein 5A (Hepatitis C virus) (UniProt Q5L478); assay: Inhibition of HCV NS5A in Huh5-2 replicon cells at 100 uM propidium iodide staining based confocal microscopic analysis; type: cell-based; conditions: Hepacivirus hominis
T1 sequence (whole entry): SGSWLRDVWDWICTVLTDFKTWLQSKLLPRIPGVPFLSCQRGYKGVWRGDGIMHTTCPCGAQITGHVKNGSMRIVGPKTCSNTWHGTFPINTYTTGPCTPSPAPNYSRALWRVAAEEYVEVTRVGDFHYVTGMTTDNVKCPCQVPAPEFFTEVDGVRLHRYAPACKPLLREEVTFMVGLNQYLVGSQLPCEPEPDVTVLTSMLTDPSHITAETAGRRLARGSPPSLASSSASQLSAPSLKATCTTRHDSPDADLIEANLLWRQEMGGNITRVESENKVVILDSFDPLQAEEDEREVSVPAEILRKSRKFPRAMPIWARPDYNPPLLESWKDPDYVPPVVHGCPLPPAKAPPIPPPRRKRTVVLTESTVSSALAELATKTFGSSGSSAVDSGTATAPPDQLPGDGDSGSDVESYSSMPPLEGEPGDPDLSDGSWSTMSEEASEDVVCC

[5] = Cytotoxicity against human Huh5-2 cells assessed as cell viability after 72 hrs by Alamar blue dye based colorimetric analysis; design: species or system Huh-5-2; conditions: read-out: LC50
Hepatitis C virus [6] = assay: Antiviral activity against HCV Con1 infected in human Huh5-2 cells haboring firefly luciferase expressing subgenomic replicon of HCV genotype 1b after 72 hrs by luciferase reporter gene assay; type: functional, organism-based, Hepacivirus hominis; conditions: isolate Con1, Huh-5-2, 72 h
Hepatitis C virus [7] = assay: Antiviral activity against HCV Con1 infected in human Huh5-2 cells haboring firefly luciferase expressing subgenomic replicon of HCV genotype 1b at 100 uM after 7 days by luciferase reporter gene assay; type: functional, organism-based; conditions: Hepacivirus hominis, isolate Con1, Huh-5-2
[8] = Lipophilicity, log D of compound; type: physicochemical; conditions: octanol/water
[9] = biological target: T2, Polymerase acidic protein (Influenza A virus (strain A/X-31 H3N2), UniProt Q9IQ47); assay: Inhibition of recombinant Influenza A/X-31 virus PA (N-terminal amino acid residue 1-217) transfected in Escherichia coli assessed as endonucleolytic digestion using single-stranded circular DNA plasmid M13mp18 after 2 hrs by ethidium bromide staining based agarose gel electrophoresis; design: species or system Influenza A virus (A/X-31(H3N2))
[10] = biological target: T2, Polymerase acidic protein; assay: Inhibition of recombinant Influenza A/X-31 virus PA infected in HEK293T cells after 2 hrs by vRNP reconstitution assay; type: cell-based, Influenza A virus (A/X-31(H3N2)), HEK-293T
[11] = Cytotoxicity against HEK293T cells assessed as effect on cell morphology after 24 hrs by microscopic analysis; type: cell-based, HEK-293T; conditions: human

For `O=C1Cc2ccccc2CC(=O)N1O`, the IC50 [1] was > 500 µM.

For `O=C1Cn2c(cc3cc(Cl)ccc32)C(=O)N1O`, the pKa [2] was 7.27, the “Selectivity Index” value [3] was >19.1 and the inhibition [4] was “Active”. For the same compound, the CC50 at 72 h [5] was > 200 µM, the EC50 (Hepatitis C virus [6]) was 10.5 µM and the Activity (Hepatitis C virus [7]) was “inactive”. For the same compound, the logD [8] was 1.17, the IC50 [9] was 26.9 µM and the EC50 [10] was 114 µM. The MCC at 24 h [11] was ≥ 500 µM.

In the case of `O=C1Cn2c(cc3cc(F)ccc32)C(=O)N1O`, the pKa [2] is reported as 7.27, the “Selectivity Index” value [3] is reported as >2.4 and the CC50 at 72 h [5] is reported as > 200 µM. The EC50 (Hepatitis C virus [6]) was 83.8 µM, the logD [8] was 0.71 and the IC50 [9] was 17.3 µM. For the same compound, the EC50 [10] was > 500 µM and the MCC at 24 h [11] was ≥ 500 µM.

For `O=C(O)C(=O)CC(=O)c1ccccc1`, the pKa [2] was 2.85, the CC50 at 72 h [5] was > 200 µM and the EC50 (Hepatitis C virus [6]) was > 200 µM. The logD [8] was -1.73 and the IC50 [9] was 5.4 µM.

With `O=C1Cn2c(cc3ccccc32)C(=O)N1O` the pKa [2] was 7.27, the “Selectivity Index” value [3] was >1.6 and the CC50 at 72 h [5] was > 200 µM. The EC50 (Hepatitis C virus [6]) was 126 µM, the logD [8] was 0.57 and the IC50 [9] was 12.7 µM. For the same compound, the EC50 [10] was 297 µM and the MCC at 24 h [11] was ≥ 500 µM.

In the case of `COc1ccc2c(c1)cc1n2CC(=O)N(O)C1=O`, the pKa [2] is reported as 7.27, the CC50 at 72 h [5] is reported as > 200 µM and the EC50 (Hepatitis C virus [6]) is reported as > 200 µM. For the same compound, the logD [8] was 0.41, the IC50 [9] was 23 µM and the EC50 [10] was 48 µM. The MCC at 24 h [11] was ≥ 500 µM.

In the case of `O=C1Cn2c(cc3ccccc32)C(=O)N1`, the pKa [2] is reported as 9.3, the CC50 at 72 h [5] is reported as > 200 µM and the EC50 (Hepatitis C virus [6]) is reported as > 200 µM. The logD [8] was 0.75 and the IC50 [9] was > 500 µM.

In the case of `O=C1Cn2c(cc3cc(O)ccc32)C(=O)N1O`, the pKa [2] is reported as 7.27, the CC50 at 72 h [5] is reported as > 200 µM and the EC50 (Hepatitis C virus [6]) is reported as > 200 µM. The logD [8] was 0.26, the IC50 [9] was 29.2 µM and the EC50 [10] was 75 µM. The MCC at 24 h [11] was ≥ 500 µM.
